From ChEMBL document CHEMBL4602695, “Discovery and SARs of 5-Chloro-N4-phenyl-N2-(pyridin-2-yl)pyrimidine-2,4-diamine Derivatives as Oral Available and Dual CDK 6 and 9 Inhibitors with Potent Antitumor Activity” (J Med Chem, 2020)

Experiments:
MDA-MB-231 [1] = assay: Cell cycle arrest in human MDA-MB-231 cells assessed as accumulation at S phase at 4 uM measured after 48 hrs by propidium iodide staining based flow cytometry (reference value: 26.45%); type: functional
MDA-MB-231 [2] = assay: Induction of apoptosis in human MDA-MB-231 cells assessed as viable cells at 4 uM measured after 48 hrs by Annexin V-FITC/propidium iodide staining based flow cytometry (95.8%); type: functional; settings: MDA-MB-231, 48 h, read-out: Activity
[3] = Octanol-water partition coefficient, log P of the compound by HPLC-based shake flask method; type: physicochemical
MDA-MB-231 [4] = assay: Induction of apoptosis in human MDA-MB-231 cells assessed as late apoptotic cells at 12 uM measured after 48 hrs by Annexin V-FITC/propidium iodide staining based flow cytometry (2.78%); type: functional
[5] = Stability in human hepatocytes assessed as parent compound remaining after 120 mins by LC-MS/MS analysis; type: ADME, cell-based, Hepatocyte; settings: read-out: Stability
MDA-MB-231 [6] = assay: Antiproliferative activity against human MDA-MB-231 cells assessed as inhibition of cell proliferation measured after 48 hrs by CCK8 assay; type: functional, cell-based; settings: MDA-MB-231, 48 h
[7] = molecular target: Cyclin-dependent kinase 5/CDK5 activator 1 (Homo sapiens, UniProt Q00535); settings: Sf9, human, read-out: INH
Sequence of Cyclin-dependent kinase 5/CDK5 activator 1 (Q00535 whole entry): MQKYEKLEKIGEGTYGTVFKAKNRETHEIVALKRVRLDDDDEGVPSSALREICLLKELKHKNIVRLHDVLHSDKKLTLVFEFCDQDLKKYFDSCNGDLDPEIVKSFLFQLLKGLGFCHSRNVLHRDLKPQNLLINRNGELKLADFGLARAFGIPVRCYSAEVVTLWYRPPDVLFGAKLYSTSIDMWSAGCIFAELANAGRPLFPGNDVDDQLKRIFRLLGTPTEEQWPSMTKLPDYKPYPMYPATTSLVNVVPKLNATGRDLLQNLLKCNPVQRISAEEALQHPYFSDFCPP
Sequence of Cyclin-dependent kinase 5/CDK5 activator 1 (Q15078 whole entry, further chain): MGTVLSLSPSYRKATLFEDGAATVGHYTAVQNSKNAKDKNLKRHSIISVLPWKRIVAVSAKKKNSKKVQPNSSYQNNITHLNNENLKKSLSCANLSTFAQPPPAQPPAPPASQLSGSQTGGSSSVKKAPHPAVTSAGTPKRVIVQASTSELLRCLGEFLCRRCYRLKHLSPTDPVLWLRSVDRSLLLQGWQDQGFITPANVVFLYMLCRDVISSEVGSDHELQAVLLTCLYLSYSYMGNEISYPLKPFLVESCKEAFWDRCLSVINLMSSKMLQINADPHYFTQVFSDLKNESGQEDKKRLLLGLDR

MDA-MB-231 [8] = assay: Induction of apoptosis in human MDA-MB-231 cells assessed as viable cells at 12 uM measured after 48 hrs by Annexin V-FITC/propidium iodide staining based flow cytometry (95.8%); type: functional; settings: MDA-MB-231, 48 h, read-out: Activity
Jurkat = assay: Antiproliferative activity against human Jurkat cells assessed as inhibition of cell proliferation measured after 48 hrs by CCK8 assay; type: functional, cell-based
MDA-MB-231 [9] = assay: Induction of apoptosis in human MDA-MB-231 cells assessed as necrotic cells at 4 uM measured after 48 hrs by Annexin V-FITC/propidium iodide staining based flow cytometry (0.498%); type: functional
[10] = Oral bioavailability in Sprague-Dawley rat at 10 mg/kg by LC-MS/MS analysis; type: ADME, organism-based; settings: in vivo
MDA-MB-231 [11] = assay: Cell cycle arrest in human MDA-MB-231 cells assessed as accumulation at G2/M phase at 12 uM measured after 48 hrs by propidium iodide staining based flow cytometry (reference value: 15.9%); type: functional

CC(=O)Nc1cccc(Nc2nc(Nc3ccc(N4CCN(C)CC4)cn3)ncc2Cl)c1
Activity (MDA-MB-231 [1]): 18.97% | viability at 4 µM (MDA-MB-231 [2]): 94.2% | logP [3]: 1.23 | Activity (MDA-MB-231 [4]): 26.4% | remaining at 2 h [5]: 40.4% | IC50 (MDA-MB-231 [6]): 4.01 to 8.08 µM | inhibition at 1 µM [7]: < 6.6% | viability at 12 µM (MDA-MB-231 [8]): 54.9% | IC50 (Jurkat): 4.01 to 8.08 µM | Activity (MDA-MB-231 [9]): 0.57% | bioavailability [10]: 28.9% | Activity (MDA-MB-231 [11]): 34.27%
